This is an account of results in US10562898B2, “Substituted benzenesulfonamides as inhibitors of alpha-4 beta-7 integrin activity” (EA PHARMA CO., LTD., priority 2016, dated 2020).

As usually defined, the IC50 is the midpoint of a concentration-inhibition curve.

For this assay, the target named is T1, α4β7 integrin (Homo sapiens, UniProt P13612+P26010).
T1 construct: a cell line RPMI-8866, which is known to express α4β7 integrin; endogenous in cells; host or cells: RPMI-8866 (human B cell line)
T1 sequence (P13612 34-1032): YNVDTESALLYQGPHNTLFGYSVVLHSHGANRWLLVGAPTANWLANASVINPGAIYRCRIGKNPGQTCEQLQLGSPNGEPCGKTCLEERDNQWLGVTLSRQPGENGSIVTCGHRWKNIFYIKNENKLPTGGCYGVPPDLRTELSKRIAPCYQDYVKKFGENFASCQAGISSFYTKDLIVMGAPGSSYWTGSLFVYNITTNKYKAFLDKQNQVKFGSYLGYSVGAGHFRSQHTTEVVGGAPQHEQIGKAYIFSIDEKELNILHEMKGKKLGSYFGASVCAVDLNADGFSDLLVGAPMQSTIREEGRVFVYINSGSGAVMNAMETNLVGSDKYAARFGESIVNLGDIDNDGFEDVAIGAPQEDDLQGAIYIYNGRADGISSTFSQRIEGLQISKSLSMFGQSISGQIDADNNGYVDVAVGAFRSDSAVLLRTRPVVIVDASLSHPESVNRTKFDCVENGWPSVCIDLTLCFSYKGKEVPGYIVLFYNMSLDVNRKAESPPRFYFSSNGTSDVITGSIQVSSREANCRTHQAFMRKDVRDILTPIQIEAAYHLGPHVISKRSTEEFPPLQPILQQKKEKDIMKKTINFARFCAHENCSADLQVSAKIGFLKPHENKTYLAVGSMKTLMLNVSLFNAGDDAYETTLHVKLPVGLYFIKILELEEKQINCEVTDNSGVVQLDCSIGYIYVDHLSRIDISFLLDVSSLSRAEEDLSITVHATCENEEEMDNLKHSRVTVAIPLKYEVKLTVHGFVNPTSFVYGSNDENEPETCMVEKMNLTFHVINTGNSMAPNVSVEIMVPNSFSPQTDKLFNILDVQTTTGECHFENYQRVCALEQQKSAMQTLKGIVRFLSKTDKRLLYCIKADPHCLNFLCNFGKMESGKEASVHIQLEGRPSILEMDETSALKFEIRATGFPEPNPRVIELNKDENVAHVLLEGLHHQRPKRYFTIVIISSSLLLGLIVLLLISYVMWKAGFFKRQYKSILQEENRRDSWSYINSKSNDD
T1 sequence (P26010 20-798): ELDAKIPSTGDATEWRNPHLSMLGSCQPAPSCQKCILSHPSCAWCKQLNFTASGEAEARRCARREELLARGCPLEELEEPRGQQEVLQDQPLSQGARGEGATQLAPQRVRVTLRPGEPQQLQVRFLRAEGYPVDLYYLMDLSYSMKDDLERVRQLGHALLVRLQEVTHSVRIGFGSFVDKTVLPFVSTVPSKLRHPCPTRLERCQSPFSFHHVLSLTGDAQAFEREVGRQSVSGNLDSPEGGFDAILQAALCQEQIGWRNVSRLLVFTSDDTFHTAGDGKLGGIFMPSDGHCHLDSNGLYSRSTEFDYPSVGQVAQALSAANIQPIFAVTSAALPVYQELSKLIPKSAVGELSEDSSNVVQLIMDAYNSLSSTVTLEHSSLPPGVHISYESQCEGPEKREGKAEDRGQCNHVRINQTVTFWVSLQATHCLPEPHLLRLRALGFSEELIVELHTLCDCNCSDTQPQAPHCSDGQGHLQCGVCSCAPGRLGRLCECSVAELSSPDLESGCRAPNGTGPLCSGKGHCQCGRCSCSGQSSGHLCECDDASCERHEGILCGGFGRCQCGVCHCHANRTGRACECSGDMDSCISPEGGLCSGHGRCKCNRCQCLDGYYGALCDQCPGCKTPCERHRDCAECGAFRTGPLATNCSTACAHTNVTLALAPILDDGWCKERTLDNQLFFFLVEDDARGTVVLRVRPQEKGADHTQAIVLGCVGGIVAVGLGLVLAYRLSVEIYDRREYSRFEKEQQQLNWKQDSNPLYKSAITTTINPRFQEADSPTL
Description: MAdCAM-1/α4β7 integrin binding inhibitory activity evaluation test (RPMI-8866 cells binding to MAdCAM-1/Fc). It counts as cell-based. The note with it: recombinant mouse MAdCAM-1/Fc, no serum. Put shortly: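 Human B-cell line RPMI-8866 (α4β7+) allowed to adhere to plates coated with recombinant mouse MAdCAM-1/Fc (0.75 μg/mL) in DMEM/HEPES/BSA with 4 mM MnCl2, 15–60 min at 30° C, with test compound. Bound cells quantified by LDH activity after lysis (A490); IC50 derived from binding relative to no-compound wells.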

Regarding `Cc1cn(C)c(=O)n(-c2ccc(C[C@H](NC(=O)c3cc(F)c(NS(=O)(=O)c4ccc5c(NC(=O)C(C)(C)C)c[nH]c5c4)cc3F)C(=O)O)cn2)c1=O` [Compound A74], the IC50 came to 7.8 nM. As for `CN1CCC(=O)N(c2ccc(C[C@H](NC(=O)c3cc(F)c(NS(=O)(=O)c4ccc(NC(=O)C(C)(C)C)cc4)cc3F)C(=O)O)cn2)C1=O` [Compound A75, (2S)-2-[2,5-difluoro-4-[(4-pivalamidophenyl)sulfonamide]benzamido]-3-[6-(3-methyl-2,6-dioxotetrahydropyrimidin-1(2H)-yl)pyridin-3-yl]propanoic acid], the IC50 was 4 nM. Then `Cc1cn(C)c(=O)n(-c2ccc(C[C@H](NC(=O)c3cc(F)c(NS(=O)(=O)c4cc5cc(NC(=O)C(C)(C)C)ccc5[nH]4)cc3F)C(=O)O)cn2)c1=O` [Compound A76], with 2 nM; and `Cc1cn(C)c(=O)n(-c2ccc(C[C@H](NC(=O)c3cc(F)c(NS(=O)(=O)c4c[nH]c5cc(NC(=O)C(C)(C)C)ccc45)cc3F)C(=O)O)cn2)c1=O` [Compound A77], with 3.6 nM.
